Reference: patent publication US8440646B1 (priority 2006, dated 2013)
≈ marks a conversion by molar mass, not a printed value. Read-outs that look alike come from different tables or passages of the source.

Columns and labels:
[1] = system: S. aureus RN450; experiment: microbe, parasite or virus in culture; assay type: cell-based; conditions: Staphylococcus aureus
[2] = system: Peptidoglycan synthesis of S. aureus RN450; experiment: microbe, parasite or virus in culture; assay type: cell-based; conditions: for IC50 / IC90: Staphylococcus aureus; for IC50: read-out: Peptidoglycan synthesis IC50; for IC90: read-out: Peptidoglycan synthesis IC90
[3] = system: S. pneumoniae 157E; experiment: microbe, parasite or virus in culture; assay type: cell-based; conditions: Streptococcus pneumoniae
[4] = system: S. pneumoniae 700905; experiment: microbe, parasite or virus in culture; assay type: cell-based; conditions: Streptococcus pneumoniae
[5] = system: Protein synthesis of S. aureus RN450; experiment: microbe, parasite or virus in culture; assay type: cell-based; conditions: for IC50 / IC90: Staphylococcus aureus; for IC50: read-out: Protein synthesis IC50; for IC90: read-out: Protein synthesis IC90
[6] = system: S. aureus MRSA5; experiment: microbe, parasite or virus in culture; assay type: cell-based; conditions: Staphylococcus aureus
[7] = system: E. faecium 494; experiment: microbe, parasite or virus in culture; assay type: cell-based; conditions: Enterococcus faecium
[8] = system: E. faecalis 29212; experiment: microbe, parasite or virus in culture; assay type: cell-based; conditions: Enterococcus faecalis
[9] = system: S. pneumoniae 157E; set-up: species or system mice; conditions: mouse, in vivo
[10] = system: S. pneumoniae 700905; set-up: species or system mice; conditions: mouse, in vivo
[11] = system: S. pneumoniae 157E; experiment: animal or person; assay type: in vivo, mice; conditions: for responders at 5 mg/kg / responders at 10 mg/kg: Streptococcus pneumoniae, 157E, in Mus musculus, 48 h, read-out: % survival; for efficacy in words: mouse, in vivo
[12] = system: S. aureus RN4250; experiment: microbe, parasite or virus in culture; assay type: cell-based; conditions: Staphylococcus aureus, RN4250

For CN(C)[C@@H]1C(O)=C(C(N)=O)C(=O)[C@@]2(O)C(O)=C3C(=O)c4c(O)ccc(C#Cc5ccc(N)cc5)c4C[C@H]3C[C@@H]12 [AA], the MIC [1] was 1 µg/mL (≈ 1.89 µM), the “effect on peptidoglycan biosynthesis in words” value [2] was “affect peptidoglycan biosynthesis” and the IC50 [2] was 3.8 µg/mL (≈ 7.18 µM). For the same molecule, the IC90 [2] was 23 µg/mL (≈ 43.4 µM), the MIC [3] was 0.5 µg/mL (≈ 0.944 µM) and the MIC [4] was 1 µg/mL (≈ 1.89 µM). For the same molecule, the “macromolecular synthesis profile in words” value [5] was “profile similar to class I compounds”, the IC50 [5] was 0.14 µg/mL (≈ 0.264 µM) and the IC90 [5] was 1.4 µg/mL (≈ 2.64 µM). It also gave an MIC [6] of 0.5 µg/mL (≈ 0.944 µM).

In the case of CN(C)[C@@H]1C(O)=C(C(N)=O)C(=O)[C@@]2(O)C(O)=C3C(=O)c4c(O)ccc(-c5ccc(CO)cc5)c4C[C@H]3C[C@@H]12 [AB], the MIC [1] is reported as 0.06 µg/mL (≈ 0.115 µM), the IC50 [2] is reported as 18.3 µg/mL (≈ 35.2 µM) and the IC90 [2] is reported as > 32 µg/mL. The MIC [3] was 0.06 µg/mL (≈ 0.115 µM), the MIC [4] was 4 µg/mL (≈ 7.68 µM) and the IC50 [5] was 0.19 µg/mL (≈ 0.365 µM). For the same molecule, the IC90 [5] was 1.8 µg/mL (≈ 3.46 µM) and the MIC [6] was 1 µg/mL (≈ 1.92 µM).

Work on COCCOC(=O)Nc1ccc(-c2ccc(O)c3c2C[C@H]2C[C@H]4[C@H](N(C)C)C(O)=C(C(N)=O)C(=O)[C@@]4(O)C(O)=C2C3=O)cc1 [AD] yielded an MIC [1] of 0.06 µg/mL (≈ 0.0987 µM), an MIC [3] of 0.13 µg/mL (≈ 0.214 µM) and an MIC [4] of 0.5 µg/mL (≈ 0.823 µM). It also gave an MIC [6] of 1 µg/mL (≈ 1.65 µM).

With CN(C)[C@@H]1C(O)=C(C(N)=O)C(=O)[C@@]2(O)C(O)=C3C(=O)c4c(O)ccc(-c5ccc(NC(=O)c6ccno6)cc5)c4C[C@H]3C[C@@H]12 [AE] the MIC [1] was 0.06 µg/mL (≈ 0.0999 µM), the IC50 [2] was 6 µg/mL (≈ 9.99 µM) and the IC90 [2] was > 32 µg/mL. The MIC [3] was 0.13 µg/mL (≈ 0.216 µM), the MIC [4] was 1 µg/mL (≈ 1.67 µM) and the IC50 [5] was 0.07 µg/mL (≈ 0.117 µM). The IC90 [5] was 0.62 µg/mL (≈ 1.03 µM) and the MIC [6] was 0.5 µg/mL (≈ 0.833 µM).

CCCCN(CCCC)Cc1cc(N(C)C)c2c(c1O)C(=O)C1=C(O)[C@]3(O)C(=O)C(C(N)=O)=C(O)[C@@H](N(C)C)[C@@H]3C[C@@H]1C2 [AH] showed an MIC [7] of 0.25 µg/mL (≈ 0.418 µM), an MIC [4] of 0.06 µg/mL (≈ 0.1 µM) and an MIC [8] of 0.25 µg/mL (≈ 0.418 µM). For the same molecule, the MIC [6] was 1 µg/mL (≈ 1.67 µM).

CN(CCCc1cc(N(C)C)c2c(c1O)C(=O)C1=C(O)[C@]3(O)C(=O)C(C(N)=O)=C(O)[C@@H](N(C)C)[C@@H]3C[C@@H]1C2)Cc1ccccc1 [AK] gave an MIC [1] of 1 µg/mL (≈ 1.62 µM), an MIC [3] of 0.5 µg/mL (≈ 0.808 µM) and an MIC [4] of 0.5 µg/mL (≈ 0.808 µM). The MIC [6] was 2 µg/mL (≈ 3.23 µM).

Work on C[C@H]1c2ccc(CN3CCC(C(F)(F)F)CC3)c(O)c2C(=O)C2=C(O)[C@]3(O)C(=O)C(C(N)=O)=C(O)[C@@H](N(C)C)C3[C@@H](O)C21 (some centres unmarked) [AN] yielded a PD50 ([9]; iv) of 0.54 mg/kg, a PD50 ([9]; po) of 2.3 mg/kg and a PD50 ([10]; iv) of 1.4 mg/kg. It also gave a PD50 ([10]; po) of 8.4 mg/kg.

With CO/N=C/c1cc(-c2ccc(O)c3c2C[C@H]2C[C@H]4[C@H](N(C)C)C(O)=C(C(N)=O)C(=O)[C@@]4(O)C(O)=C2C3=O)ccc1OC [A] the MIC [1] was 0.25 µg/mL (≈ 0.433 µM), the “effect on peptidoglycan biosynthesis in words” value [2] was “affect peptidoglycan biosynthesis” and the IC50 [2] was 2.1 µg/mL (≈ 3.64 µM). For the same molecule, the IC90 [2] was 3.8 µg/mL (≈ 6.58 µM), the MIC [7] was 1 µg/mL (≈ 1.73 µM) and the MIC [4] was 0.25 µg/mL (≈ 0.433 µM). For the same molecule, the MIC [8] was 1 µg/mL (≈ 1.73 µM), the IC50 [5] was 1.9 µg/mL (≈ 3.29 µM) and the IC90 [5] was 5 µg/mL (≈ 8.66 µM). It also gave an MIC [6] of 1 µg/mL (≈ 1.73 µM).

CN(C)c1cc(CNC2CCCCC2)c(O)c2c1C[C@H]1C[C@H]3[C@H](N(C)C)C(O)=C(C(N)=O)C(=O)[C@@]3(O)C(O)=C1C2=O [B] was tested, and the MIC [7] was 1 µg/mL (≈ 1.76 µM), the responders at 5 mg/kg ([11]; po) was 40% and the responders at 5 mg/kg ([11]; sc) was 100%. For the same molecule, the efficacy in words [11] was “efficacious”, the MIC [4] was 0.5 µg/mL (≈ 0.879 µM) and the MIC [8] was 1 µg/mL (≈ 1.76 µM). The MIC [6] was 1 µg/mL (≈ 1.76 µM).

With CC(CF)N(C)Cc1cc(N(C)C)c2c(c1O)C(=O)C1=C(O)[C@]3(O)C(=O)C(C(N)=O)=C(O)[C@@H](N(C)C)[C@@H]3C[C@@H]1C2 (some centres unmarked) [Compound C] the MIC [7] was 0.25 µg/mL (≈ 0.446 µM), the responders at 10 mg/kg ([11]; po) was 60% and the responders at 5 mg/kg ([11]; sc) was 100%. For the same molecule, the efficacy in words [11] was “efficacious”, the MIC [4] was 0.25 µg/mL (≈ 0.446 µM) and the MIC [8] was 0.5 µg/mL (≈ 0.892 µM). For the same molecule, the MIC [6] was 1 µg/mL (≈ 1.78 µM).

CN(Cc1ccccc1)Cc1cc(N(C)C)c2c(c1O)C(=O)C1=C(O)[C@]3(O)C(=O)C(C(N)=O)=C(O)[C@@H](N(C)C)[C@@H]3C[C@@H]1C2 [Compound I] was tested, and the MIC [7] was 1 µg/mL (≈ 1.69 µM), the MIC [4] was 0.5 µg/mL (≈ 0.846 µM) and the MIC [8] was 1 µg/mL (≈ 1.69 µM). The PD50 ([9]; iv) was 1 mg/kg, the PD50 ([9]; po) was 13.4 mg/kg and the “oral activity in words” value ([9]; po) was “exhibited oral activity”. For the same molecule, the MIC [6] was 1 µg/mL (≈ 1.69 µM), the PD50 ([10]; iv) was 2.2 mg/kg and the PD50 ([10]; po) was 31.6 mg/kg.

For COc1ccc(-c2ccc(O)c3c2C[C@H]2C[C@H]4[C@H](N(C)C)C(O)=C(C(N)=O)C(=O)[C@@]4(O)C(O)=C2C3=O)cc1CN(C)C(C)C [Compound M], the MIC [1] was 0.06 µg/mL (≈ 0.0991 µM) and the MIC [12] was 0.06 µg/mL (≈ 0.0991 µM).

CC1CN(C2CCN(Cc3cc(N(C)C)c4c(c3O)C(=O)C3=C(O)[C@]5(O)C(=O)C(C(N)=O)=C(O)[C@@H](N(C)C)[C@@H]5C[C@@H]3C4)CC2)CC(C)O1 (some centres unmarked) [Compound R] showed an MIC [7] of 1 µg/mL (≈ 1.5 µM), an MIC [4] of 0.13 µg/mL (≈ 0.195 µM) and an MIC [8] of 2 µg/mL (≈ 2.99 µM). For the same molecule, the MIC [6] was 1 µg/mL (≈ 1.5 µM).

In the case of CN(C)Cc1ccc(-c2ccc(O)c3c2C[C@H]2C[C@H]4[C@H](N(C)C)C(O)=C(C(N)=O)C(=O)[C@@]4(O)C(O)=C2C3=O)cc1 [Compound V], the MIC [1] is reported as 0.06 µg/mL (≈ 0.11 µM) and the MIC [12] is reported as 0.06 µg/mL (≈ 0.11 µM).

Molecule COC(=O)c1ccc(CNCc2cc(N(C)C)c3c(c2O)C(=O)C2=C(O)[C@]4(O)C(=O)C(C(N)=O)=C(O)[C@H](N(C)C)[C@@H]4C[C@@H]2C3)cc1 [D] has an MIC [7] of 1 µg/mL (≈ 1.58 µM), a responders at 10 mg/kg ([11]; po) of 0% and a responders at 5 mg/kg ([11]; sc) of 0%. The MIC [4] was 0.25 µg/mL (≈ 0.394 µM), the MIC [8] was 0.25 µg/mL (≈ 0.394 µM) and the MIC [6] was 1 µg/mL (≈ 1.58 µM).
